Laboratory results from paper PMC7927014, “Novel Small Molecule Hsp90/Cdc37 Interface Inhibitors Indirectly Target K-Ras-Signaling” (Cancers, 2021).

Key:
Assay type in all cases: cell-based
[1] = system: Hsp90 clients (C-Raf, Akt, ERK); experiment: Western blotting of Hsp90 client proteins; details: Western blot, 24 h; SK-BR-3, MDA-MB-231, MIA PaCa-2, HCC-44 (conglobatin A: MDA-MB-231)
Method: The cells were trypsinized, washed with PBS, and lysed in RIPA buffer (cat no. 89900, ThermoFisher Scientific) containing protease and phosphatase inhibitors (cat. no. A32959, ThermoFisher Scientific) and 1 mM phenylmethylsulfonyl fluoride (PMSF). The cells in the RIPA buffer were placed on ice for 20 min, and were then sonicated in ice cold water for 5 min. The lysates were centrifuged at 4 °C, and their protein was quantified using a BCA kit (cat. no. 23225, ThermoFisher Scientific). Equal amounts of protein were separated by 10% SDS-PAGE, and were then transferred onto a nitrocellulose membrane (cat. no. NBA 083C001EA, Protran) using a wet transfer system (Bio-Rad) or semidry Transferblot Turbo Transfer System (Bio-Rad). After the transfer, the membranes were blocked for 30 min in 5% skimmed milk dissolved in 1× TBST, and then incubated with 1:2000 primary antibodies in 5% BSA in TBST at 4 °C overnight.
The primary antibodies against HER-2 (cat no. MA5-140579) and Hsp70 (cat. no. MA3-006) were purchased from ThermoFisher Scientific; C-Raf (cat. no. sc-133); the galectin-3 (cat. no. sc-20157), Hsp90 (cat. no. sc-69703), Cdc37 (cat. no. sc-13129) were obtained from Santa Cruz Biotechnology; the Akt (cat. no. 9272S), ERK1/2 (cat. no. 9102S), and pERK1/2 (cat. no. 9101S) were obtained from Cell Signaling Technology; the HIF-1α (cat. no. NB-100-134) was obtained from Novus Biologicals; and the β-actin (cat. no. A1978) was obtained from Sigma-Aldrich.
The next day, the membranes were washed three times in TBST for 10 min, and then incubated with secondary antibodies (1:5000) diluted in 5% skimmed milk in TBST for 1 h at RT. As secondary antibodies, we employed HRP-conjugated anti-mouse (cat. no. sc-2954, Santa Cruz Biotechnology) and anti-rabbit antibodies (cat. no. HAF008, R&D System). The protein bands were detected with a ChemiDoc MP instrument (Bio-Rad) after treatment with an ECL reagent (cat. no. 170-5061, BioRad). All of the antigens and molecular weights in kDa are labelled next to the blots on the figures. Uncropped Western blot data are attached as Figure S6.

HCC-44 cells [2] = experiment: Tumorosphere assay (low adhesion, serum-free 3D spheroid culture); details: Homo sapiens, HCC44; HCC-44 (lung, G12C), low attachment, serum-free, 72 h; read-out: 3D spheroid formation IC50
Method: (§1) Per well, 2000 cells were seeded in flat bottom 96-well suspension culture plates (cat. no. 655185, Cellstar, Greiner Bio-One) in 100 µL DMEM or RPMI media containing 1× B27 (cat. no. 17504044, Gibco, Thermo Fisher Scientific), 25 ng/mL EGF (cat. no. E9644, Sigma-Aldrich), and 25 ng/mL FGF (cat. no. RP-8628, Thermo Fisher Scientific), 20% MethoCult H4100 (cat. no. 04100, […] Technologies). After 2 days, 50 µL media containing 0.3% DMSO or 3× the concentration of the indicated compounds were added to the wells in a 1:2 dilution-series, starting at 100 µM. After 72 h of treatment, 10% (v/v) alamarBlue reagent (cat. no. DAL1100, Thermo Fisher Scientific) was added to each well. Then, the fluorescence intensity (excitation 560 nm and emission 590 nm) was measured after 4 h using a H1 Hybrid Multi-Mode reader (BioTek).

MDA-MB-231 cells = experiment: as above; details: Homo sapiens, MDA-MB-231, 72 h; read-out: 3D spheroid formation IC50
Method: as §1

MIA PaCa-2 cells [3] = experiment: as above; details: Homo sapiens; MIA PaCa-2 (pancreas), low attachment, serum-free, 72 h; read-out: 3D spheroid formation IC50
Method: as §1

SK-BR-3 cells [4] = experiment: as above; details: Homo sapiens; SK-BR-3 (breast, n.a.), low attachment, serum-free, 72 h; read-out: 3D spheroid formation IC50
Method: as §1

HCC-44 cells [5] = experiment: 2D cell proliferation (alamarBlue); details: Homo sapiens, HCC44; HCC-44 (lung, G12C), 72 h
Method: (§2) Per well, 500–700 cells were seeded in 96-well flat bottom culture plates in 100 µL. After 24 h, the cells were treated with 0.1% DMSO vehicle control or test compounds diluted in a medium using a 1:2 dilution-series, starting at 100 µM. The plates were further incubated for 72 h. The cell viability was measured after the addition of 10% alamarBlue reagent per well (cat. no. DAL1100, Thermo Fisher Scientific). The fluorescence intensity (excitation 560 nm and emission 590 nm) was measured after 4 h by the use of a H1 Hybrid Multi-Mode reader.

MCF 10A cells = experiment: 2D cell proliferation (alamarBlue); details: Homo sapiens, 72 h
Method: as §2

MIA PaCa-2 cells [6] = experiment: 2D cell proliferation (alamarBlue); details: Homo sapiens; MIA PaCa-2 (pancreas), 72 h
Method: as §2

HEK293 EBNA cells = experiment: 2D cell proliferation (alamarBlue); details: Homo sapiens, 72 h
Method: as §2

SK-BR-3 cells [7] = experiment: 2D cell proliferation (alamarBlue); details: Homo sapiens; SK-BR-3 (breast, n.a.), 72 h
Method: as §2

Structure (SMILES) | expression of Hsp90 clients (C-Raf, Akt, ERK; pERK) [1] | IC50 (HCC-44 cells [2]) [µM] | IC50 (MDA-MB-231 cells) [µM] | IC50 (MIA PaCa-2 cells [3]) [µM] | IC50 (SK-BR-3 cells [4]) [µM] | IC50 (HCC-44 cells [5]) [µM] | IC50 (MCF 10A cells) [µM] | IC50 (MIA PaCa-2 cells [6]) [µM] | IC50 (HEK293 EBNA cells) [µM] | IC50 (SK-BR-3 cells [7]) [µM]
CCOc1ccc(C(=O)c2ccc(O)c(O)c2O)cc1 [×1540, 2,3,4-TRIHYDROXY-4'-ETHOXYBENZOPHENONE] | dose-dependently decreased | 52 ± 6 | 58 ± 5 | 53 ± 6 | 64 ± 5 | 49 ± 6 | 172 | 23 ± 2 | 89 | 36 ± 3
C/C1=C\[C@H](C)C[C@H](C)[C@H](Cc2cnco2)OC(=O)/C(C)=C/[C@H](C)C[C@H](C)[C@H](Cc2cnco2)OC1=O [conglobatin A, reference compound] | decreased pERK and Akt levels |  |  |  |  |  |  |  |  | 
N=C(CSS(=O)(=O)O)NCC12CC3CC(CC(C3)C1)C2 [×6506, [({N-[(adamantan-1-yl)methyl]carbamimidoyl}methyl)sulfanyl]sulfonic acid] | dose-dependently decreased | 67 ± 5 | 26 ± 1 | 30 ± 3 | 36 ± 4 | 28 ± 4 | 64 | 25 ± 2 | 47 | 36 ± 4
